Source: US20220378699A1, “SELF-E[…] EXTRACT” (ISRAEL PLASTICS AND RUBBER CENTER LTD., priority 2019, published 2022)
Like-named read-outs stand apart in the source and are kept apart here.

Experiment: In-vivo evaluation: phytocannabinoid serum concentrations after oral administration
Parameters: species or system mice (C57BL/6 J)
Details: male, C57BL/6J, mouse, mice, 5 mg CBD/kg, 90 min after dosing, average ± standard error
Procedure: Animal studies were performed in compliance with the Guide for the Care and Use of Laboratory Animals established by the National Institutes of Health. All procedures and protocols were approved by the Technion Administrative Panel of Laboratory Animal Care (#:IL_050-05-2018).
Subjects 10 adult male mice (C57BL/6 J; The Jackson Laboratory), weighing 20-30 gr were housed in standard laboratory conditions with controlled temperature, humidity, light/dark cycle, ad libitum access to water and regular diet. The experiment was performed at noon, during the light cycle.
CME tea was prepared by pouring 13.3 ml of hot di-ionized water (80° c) over 20 mg of dry SE particles, resulting in CME concentration of […]. The mixture was then genteelly stirred until complete dissolution was observed.
The control solution was prepared by dissolving CME in a solution of 1:1:18 EtOH: Cremophor: PBS. First, 8.5 mg of CME were dissolved in 0.5 ml of EtOH. After that 0.5 ml of Cremophor was added and the mixture was stirred for one hour. Finally, 9 ml of PBS were added, and the mixture was stirred for 30 minutes. Both CME tea and control solution concentrations were calculated to match a dose of 5 mg CBD/kg for a volume intake of 200 μl and an average mouse weight of 25 gr.
For both the control group (5 mice) and the experiment group (5 mice) a dose of 200 μl was orally administered via direct injection to the stomach.
The mice were sacrificed 1.5 hours after oral administration. Blood samples were immediately taken and stored for further examination.
A sample of 600 μl of an extraction solution containing 0.1% v/v acetic acid in a methanol: acetonitrile 1:1 mixture, spiked with 20 ng/ml deuterated internal standards (ISs) was added to 200 μl serum sample. Samples were than vortexed and centrifuged in order to enable protein and cell precipitation. 3 ml of 0.1% v/v acetic acid in water was then added to the supernatants and the sample was loaded onto Agela Cleanert C8 solid phase extraction (SPE) cartridges (500 mg of sorbent, 50 μm particle size). Elution of phytocannabinoids from the columns was done using 2 ml of 0.1% v/v acetic acid in methanol, followed by an evaporation and reconstituted in 100 μl ethanol.
Cannabinoid quantitation was performed as described by P. Berman et al. (Berman et al., 2018).
Phytocannabinoids serum concentrations were evaluated 90 min after oral administration to mice, as detailed above. The control group included a Cremophor EL (castor oil) based emulsion formulation, widely used for its potent solubilizing effect (Comelli F, Giagnoni G, Bettoni I, Colleoni M, 2008). The study group included the F2 tea formulation prepared at 0.62 mg CBD/mL, with both formulations providing 5mg/kg of CBD per body weight.

[1] = CME in Cremophor EL emulsion (1:1:18 EtOH:Cremophor:PBS), read-out: Serum concentration, Control group
[2] = po, F2 tea formulation, read-out: Serum Concentration, Experiment Group

SMILES | concentration at 90 min [1] [ng/mL] | concentration at 90 min [2] [ng/mL]
CCCCCc1cc(O)c2c(c1)OC(C)(C)c1ccc(C)cc1-2 [CBN, cannabinol] | 100 ± 5 | 125 ± 12
C=C(C)[C@@H]1CCC(C)=C[C@H]1c1c(O)cc(CCCCC)cc1O [CBD, cannabidiol] | 3100 ± 970 | 1500 ± 130
CCCCCc1cc(O)c2c(c1)OC(C)(CCC=C(C)C)C=C2 (centres unmarked) [CBC, cannabichromene] | 247 ± 48 | 210 ± 72
CCCCCc1cc(O)c2c(c1)OC(C)(C)[C@@H]1CCC(C)=C[C@@H]21 [THC, (—)-trans-Δ^9-tetrahydrocannabinol] | 343 ± 90 | 115 ± 15
